This data set can be described thus: clinical. The conditions noted are these: for Tmax / half-life: Mean; for Kel of Hydrocodone bitartrate, Mean: oral; for half-life: t1/2 of Hydrocodone bitartrate. On the procedure:
A randomized, open-label, balanced, two-treatment, two-period, two sequence, single-dose, two-way crossover oral food effect study was conducted comparing administration of rapidly dissolving pharmaceutical composition tablets including 5 mg hydrocodone bitartrate and 400 mg guaifenesin per tablet to healthy subjects under fed and fasting conditions. The objective of this study was to evaluate the effect of food (high fat, high calorie breakfast) on the rate and extent of absorption of a single oral dose of the rapidly dissolving pharmaceutical composition including 5 mg hydrocodone bitartrate and 400 mg guaifenesin.
Healthy adult participants were randomized into Treatment A or Treatment B during two study periods (Period 1 and Period 2). Participants received one tablet of the rapidly dissolving pharmaceutical composition (including 5 mg hydrocodone bitartrate and 400 mg guaifenesin per tablet) in each study period with a seven-day (washout) interval between study periods. Participants randomized to Treatment A consumed a high fat, high calorie breakfast (1000 kcal) 30 minutes prior to dosing. Participants randomized to Treatment B fasted overnight and at the time of dosing. Participants were housed at the investigative site not less than 10.5 hours pre-dose until 24 hours post-dose in each period.
Twenty-one blood samples were collected from each subject during each study period. The venous blood samples (9 mL each) were drawn at pre-dose [(0.00) within 1.00 hour prior to dosing] and at 0.16, 0.33, 0.50, 0.66, 0.83, 1.00, 1.25, 1.50, 2.00, 3.00, 4.00, 5.00, 6.00, 7.00, 8.00, 10.00, 12.00, 16.00, 20.00 and 24.00 hours post-dose. After the collection of blood samples from all the subjects at each time point, samples were centrifuged at 4000 RPM for 10 minutes at 5° C. All plasma samples were then transferred into three polypropylene tubes. The plasma samples were stored at −20±10° C. for a maximum period of 12.0 hours.
Pharmacokinetic parameters were measured for fed and fasting conditions of subjects for both hydrocodone bitartrate and guaifenesin. Plasma samples were assayed for hydrocodone and guaifenesin using an API 4000® LC-MS/MS System, commercially available from AB Sciex LP, Concord, Ontario, Canada. During analysis, standard and quality control samples were distributed throughout each batch of study samples analyzed. No access to the randomization schedule was available until all of the analysis was completed. All the values below the limit of quantification (LOQ) were set to “zero” for all pharmacokinetic and statistical calculations. Any missing sample was reported as “M”. Incurred sample reanalysis was performed as per the current version of ICON SOP BC06, “Incurred Sample Reanalysis Procedures”.
The pharmacokinetic parameters for hydrocodone and guaifenesin in plasma were computed using SAS™ v9.3 software, commercially available from SAS Institute, Inc., Cary, N.C., USA.
The plasma pharmacokinetic parameters were determined for Cmax, Tmax, AUC0→t, and AUC0→∞. The Cmax and Tmax values were directly determined from the plasma concentration versus time curves. The AUC0→t was calculated by the linear trapezoidal rule. The AUC0→∞ was estimated by summing the area from AUC0→t and […]. The half life, t1/2, was calculated using the formula t1/2=ln 2/Kel, wherein Kel is the slope of the terminal portion of the plasma concentration versus time curve, obtained by linear regression. Natural Logarithmic transformation was done before data analysis for Cmax, AUC0→t, and AUC0→∞. Tmax, t1/2, and Kel were analyzed without transformation.
A paired t-test was used to assess effects between the two arms of the study. Intra-subject variability in terms of the overall percentage coefficient of variation (% CV) were also evaluated for each PK parameter. […] All values below the limit of quantification (LOQ) were set to “zero” for all pharmacokinetic and statistical calculations.

Setting [1] is: fed:fasting, ln-transformed data.

Broadly, the half-life is the time in which the quantity being followed falls by half. Lower therefore signals rapid decline.

SMILES strings stand for the structures.

With `COc1ccccc1OCC(O)CO` (centres unmarked) [Guaifenesin, guaifenesin], the “t1/2 of Guaifenesin, Mean” value (human, in vivo, po) was 1.05 h. Also, the Tmax (human, in vivo, po, Tmax of Guaifenesin) is 0.64 h.
As for `COc1ccc2c3c1O[C@H]1C(=O)CC[C@H]4[C@@H](C2)N(C)CC[C@]314.O=C(O)C(O)C(O)C(=O)O` [Hydrocodone bitartrate, hydrocodone bitartrate], under “Fasting Condition (Treatment B), one tablet 5 mg hydrocodone bitartrate/400 mg guaifenesin”, the “Kel of Hydrocodone bitartrate, Mean” value was found to be 0.14 h⁻¹. Further, where the note is “Fed Condition (Treatment A), one tablet 5 mg hydrocodone bitartrate/400 mg guaifenesin”, the “Kel of Hydrocodone bitartrate, Mean” value is 0.14 h⁻¹. Besides, under “fed:fasting”, the “Ratio Between Treatment A: Treatment B, Kel of Hydrocodone Bitartrate, Mean” value amounted to 0.98; the “Ratio Between Treatment A: Treatment B, Tmax of Hydrocodone Bitartrate, Mean” value turned out to be 1.51; the “Ratio Between Treatment A: Treatment B, t1/2 of Hydrocodone Bitartrate, Mean” value is given as 1.11. Also, under setting [1], the “Ratio Between Treatment A: Treatment B, *AUC0→t of Hydrocodone Bitartrate, Mean” value is reported as 1.02; the “Ratio Between Treatment A: Treatment B, *AUC0→∞ of Hydrocodone Bitartrate, Mean” value worked out at 1.02; the “Ratio Between Treatment A: Treatment B, *Cmax of Hydrocodone Bitartrate, Mean” value was 1.03. Where the note is “human, in vivo, po, Tmax of Hydrocodone bitartrate, Fasting Condition (Treatment B), one tablet 5 mg hydrocodone bitartrate/400 mg guaifenesin”, the Tmax is 1.61 h. Moreover, the Tmax (human, in vivo, po, Tmax of Hydrocodone bitartrate, Fed Condition (Treatment A), one tablet 5 mg hydrocodone bitartrate/400 mg guaifenesin) was found to be 2.08 h. For the setting “human, in vivo, po, Fasting Condition (Treatment B), one tablet 5 mg hydrocodone bitartrate/400 mg guaifenesin”, this compound showed a half-life of 4.95 h. Also, where the note is “human, in vivo, po, Fed Condition (Treatment A), one tablet 5 mg hydrocodone bitartrate/400 mg guaifenesin”, the half-life is 5.29 h.

The values above are taken from patent US11202766B1, “Pharmaceutical compositions including hydrocodone bitartrate and guaifenesin” (priority 2019, dated 2021).
